# Source: publication PMC11157767 (Molecular Cancer, 2024)
# Tested on: TFG-MET allograft tumors
# Assay: RNA-sequencing, differential expression and GSEA of TFG-MET allograft tumors
# Type: in vivo, mouse
# Conditions: for NES / ES: CAP v Veh
# Experimental: Error bars display standard error of mean, statistical significance was determined using t-test analysis. (****;p<0.0001, ***;p<0.001, **;p<0.01, *;p<0.05). […] Each dot represents an individual replicate. Error bars display standard error of the mean.
# Each dot represents one gene.
smiles,measurement,setting,value
CNC(=O)c1ccc(-c2cnc3ncc(Cc4ccc5ncccc5c4)n3n2)cc1F [Capmatinib],NES,"GOMF_METHYL_CPG_BINDING, padj 0.00511198",-1.901
same,ES,GOMF_MHC_CLASS_I_PROTEIN_BINDING,0.5483
same,NES,"GOMF_MHC_CLASS_I_PROTEIN_BINDING, padj 0.0474647",1.828
same,ES,GOMF_MHC_PROTEIN_BINDING,0.5523
same,NES,"GOMF_MHC_PROTEIN_BINDING, padj 0.00543159",2.003
same,ES,GOMF_MHC_PROTEIN_COMPLEX_BINDING,0.5077
same,NES,"GOMF_MHC_PROTEIN_COMPLEX_BINDING, padj 0.0199782",1.841
same,ES,GOMF_MOLECULAR_CARRIER_ACTIVITY,-0.4555
same,NES,"GOMF_MOLECULAR_CARRIER_ACTIVITY, padj 0.0120933",-1.714
same,ES,GOMF_MONOCARBOXYLIC_ACID_BINDING,0.3828
same,NES,"GOMF_MONOCARBOXYLIC_ACID_BINDING, padj 0.0474647",1.672
same,ES,GOMF_MRNA_3_UTR_AU_RICH_REGION_BINDING,-0.5181
same,NES,"GOMF_MRNA_3_UTR_AU_RICH_REGION_BINDING, padj 0.0473079",-1.618
same,NES,"GOMF_NUCLEAR_HORMONE_RECEPTOR_BINDING, padj 0.072562",-1.431
same,ES,GOMF_NUCLEAR_IMPORT_SIGNAL_RECEPTOR_ACTIVITY,-0.6033
same,NES,"GOMF_NUCLEAR_IMPORT_SIGNAL_RECEPTOR_ACTIVITY, padj 0.0320889",-1.75
same,ES,GOMF_NUCLEAR_LOCALIZATION_SEQUENCE_BINDING,-0.6311
same,NES,"GOMF_NUCLEAR_LOCALIZATION_SEQUENCE_BINDING, padj 0.00765978",-1.864
same,ES,GOMF_NUCLEOSOMAL_DNA_BINDING,-0.5966
same,NES,"GOMF_NUCLEOSOMAL_DNA_BINDING, padj 0.0072907",-1.89
same,ES,GOMF_N_ACETYLTRANSFERASE_ACTIVITY,-0.4164
same,NES,"GOMF_N_ACETYLTRANSFERASE_ACTIVITY, padj 0.0419799",-1.576
same,ES,GOMF_N_ACYLTRANSFERASE_ACTIVITY,-0.4102
same,NES,"GOMF_N_ACYLTRANSFERASE_ACTIVITY, padj 0.0206273",-1.607
same,ES,GOMF_OXIDOREDUCTASE_ACTIVITY_ACTING_ON_PEROXIDE_AS_ACCEPTOR,0.4091
same,NES,"GOMF_OXIDOREDUCTASE_ACTIVITY_ACTING_ON_PEROXIDE_AS_ACCEPTOR, padj 0.0419799",1.715
same,ES,GOMF_PATTERN_RECOGNITION_RECEPTOR_ACTIVITY,0.5546
same,NES,"GOMF_PATTERN_RECOGNITION_RECEPTOR_ACTIVITY, padj 0.0257673",1.913
same,ES,GOMF_PEPTIDE_LYSINE_N_ACETYLTRANSFERASE_ACTIVITY,-0.4722
same,NES,"GOMF_PEPTIDE_LYSINE_N_ACETYLTRANSFERASE_ACTIVITY, padj 0.0420426",-1.64
same,ES,GOMF_PEPTIDE_N_ACETYLTRANSFERASE_ACTIVITY,-0.5177
same,NES,"GOMF_PEPTIDE_N_ACETYLTRANSFERASE_ACTIVITY, padj 0.00513885",-1.848
same,ES,GOMF_PHOSPHATIDYLINOSITOL_BINDING,-0.3004
same,NES,"GOMF_PHOSPHATIDYLINOSITOL_BINDING, padj 0.0651825",-1.368
same,ES,GOMF_POLY_A_BINDING,-0.5704
same,NES,"GOMF_POLY_A_BINDING, padj 0.0381242",-1.705
same,ES,GOMF_POLY_PURINE_TRACT_BINDING,-0.5827
same,NES,"GOMF_POLY_PURINE_TRACT_BINDING, padj 0.00978552",-1.871
same,ES,GOMF_POLY_PYRIMIDINE_TRACT_BINDING,-0.5996
same,NES,"GOMF_POLY_PYRIMIDINE_TRACT_BINDING, padj 0.0067416",-1.9
same,ES,GOMF_PROMOTER_SPECIFIC_CHROMATIN_BINDING,-0.4442
same,NES,"GOMF_PROMOTER_SPECIFIC_CHROMATIN_BINDING, padj 0.0320889",-1.624
same,ES,GOMF_PROTEIN_DEMETHYLASE_ACTIVITY,-0.5705
same,NES,"GOMF_PROTEIN_DEMETHYLASE_ACTIVITY, padj 0.0162496",-1.8078
same,ES,GOMF_PROTEIN_DIMERIZATION_ACTIVITY,-0.2556
same,NES,"GOMF_PROTEIN_DIMERIZATION_ACTIVITY, padj 0.0359639",-1.243
same,ES,GOMF_PROTEIN_HETERODIMERIZATION_ACTIVITY,-0.3318
same,NES,"GOMF_PROTEIN_HETERODIMERIZATION_ACTIVITY, padj 0.0174921",-1.498
same,ES,GOMF_PROTEIN_KINASE_ACTIVITY,-0.2726
same,NES,"GOMF_PROTEIN_KINASE_ACTIVITY, padj 0.0456955",-1.304
same,ES,GOMF_PROTEIN_PHOSPHATASE_2A_BINDING,-0.5386
same,NES,"GOMF_PROTEIN_PHOSPHATASE_2A_BINDING, padj 0.0201355",-1.753
same,ES,GOMF_PROTEIN_SERINE_THREONINE_KINASE_ACTIVITY,-0.3032
same,NES,"GOMF_PROTEIN_SERINE_THREONINE_KINASE_ACTIVITY, padj 0.0120933",-1.428
same,ES,GOMF_PROTEIN_TYROSINE_PHOSPHATASE_ACTIVITY,-0.3851
same,NES,"GOMF_PROTEIN_TYROSINE_PHOSPHATASE_ACTIVITY, padj 0.0351889",-1.569
same,ES,GOMF_PROTON_CHANNEL_ACTIVITY,0.5654
same,NES,"GOMF_PROTON_CHANNEL_ACTIVITY, padj 0.036911",1.8848
same,ES,GOMF_PROTON_TRANSPORTING_ATP_SYNTHASE_ACTIVITY_ROTATIONAL_MECHANISM,0.5869
same,NES,"GOMF_PROTON_TRANSPORTING_ATP_SYNTHASE_ACTIVITY_ROTATIONAL_MECHANISM, padj 0.0283897",1.877
same,ES,GOMF_REGULATORY_RNA_BINDING,-0.5385
same,NES,"GOMF_REGULATORY_RNA_BINDING, padj 0.00683082",-1.8485
same,ES,GOMF_RIBONUCLEOPROTEIN_COMPLEX_BINDING,-0.5611
same,NES,"GOMF_RIBONUCLEOPROTEIN_COMPLEX_BINDING, padj 7.15005e-11",-2.398
same,ES,GOMF_RNA_POLYMERASE_CORE_ENZYME_BINDING,-0.5304
same,NES,"GOMF_RNA_POLYMERASE_CORE_ENZYME_BINDING, padj 0.00672226",-1.848
same,ES,GOMF_RNA_POLYMERASE_II_SPECIFIC_DNA_BINDING_TRANSCRIPTION_FACTOR_BINDING,-0.3093
same,NES,"GOMF_RNA_POLYMERASE_II_SPECIFIC_DNA_BINDING_TRANSCRIPTION_FACTOR_BINDING, padj 0.0419799",-1.413
same,ES,GOMF_RNA_POLYMERASE_II_TRANSCRIPTION_COREGULATOR_BINDING,-0.521
same,NES,"GOMF_RNA_POLYMERASE_II_TRANSCRIPTION_COREGULATOR_BINDING, padj 0.0452435",-1.627
same,ES,GOMF_RNA_POLYMERASE_II_TRANSCRIPTION_COREPRESSOR_BINDING,-0.5717
same,NES,"GOMF_RNA_POLYMERASE_II_TRANSCRIPTION_COREPRESSOR_BINDING, padj 0.0607303",-1.658
same,ES,GOMF_SCAVENGER_RECEPTOR_ACTIVITY,0.3949
same,NES,"GOMF_SCAVENGER_RECEPTOR_ACTIVITY, padj 0.0600708",1.665
same,ES,GOMF_SMAD_BINDING,-0.4569
same,NES,"GOMF_SMAD_BINDING, padj 0.00360904",-1.79
same,ES,GOMF_SNORNA_BINDING,-0.7989
same,NES,"GOMF_SNORNA_BINDING, padj 3.3197e-10",-2.624
same,ES,GOMF_SUMO_BINDING,-0.6876
same,NES,"GOMF_SUMO_BINDING, padj 0.00672226",-1.882
same,ES,GOMF_SUMO_TRANSFERASE_ACTIVITY,-0.594
same,NES,"GOMF_SUMO_TRANSFERASE_ACTIVITY, padj 0.0682113",-1.626
same,ES,GOMF_S_ADENOSYLMETHIONINE_DEPENDENT_METHYLTRANSFERASE_ACTIVITY,-0.5424
same,NES,"GOMF_S_ADENOSYLMETHIONINE_DEPENDENT_METHYLTRANSFERASE_ACTIVITY, padj 2.7667e-10",-2.336
same,ES,GOMF_THIOLESTER_HYDROLASE_ACTIVITY,0.4211
same,NES,"GOMF_THIOLESTER_HYDROLASE_ACTIVITY, padj 0.0377403",1.7345
same,ES,GOMF_TRANSCRIPTION_COREGULATOR_BINDING,-0.4265
same,NES,"GOMF_TRANSCRIPTION_COREGULATOR_BINDING, padj 0.0442278",-1.612
same,ES,GOMF_TRANSCRIPTION_COREPRESSOR_BINDING,-0.5161
same,ES,GOMF_TRANSITION_METAL_ION_BINDING,-0.2675
same,NES,"GOMF_TRANSITION_METAL_ION_BINDING, padj 0.0113612",-1.302
same,ES,GOMF_TRANSLATION_REGULATOR_ACTIVITY,-0.5628
same,NES,"GOMF_TRANSLATION_REGULATOR_ACTIVITY, padj 1.90601e-11",-2.407
same,ES,GOMF_TRNA_BINDING,-0.6579
same,NES,"GOMF_TRNA_BINDING, padj 2.7667e-10",-2.532
same,ES,GOMF_UBIQUITIN_LIKE_PROTEIN_BINDING,-0.3584
same,NES,"GOMF_UBIQUITIN_LIKE_PROTEIN_BINDING, padj 0.0474647",-1.467
same,ES,GOMF_UNFOLDED_PROTEIN_BINDING,-0.3758
same,NES GOCC_NUCLEOLUS,"GSEA CAP vs Veh, C5 GO CC, padj 2.86725e-63",-2.612
same,NES GOCC_RIBONUCLEOPROTEIN_COMPLEX,"GSEA CAP vs Veh, C5 GO CC, padj 3.5373e-43",-2.521
same,NES GOCC_NUCLEAR_BODY,"GSEA CAP vs Veh, C5 GO CC, padj 3.83827e-29",-2.196
same,NES GOCC_PRERIBOSOME,"GSEA CAP vs Veh, C5 GO CC, padj 8.43804e-27",-3.164
same,NES GOCC_CHROMOSOMAL_REGION,"GSEA CAP vs Veh, C5 GO CC, padj 8.8925e-17",-2.317
